Assay results reported in patent publication US20170008888A1 (KYORIN PHARMACEUTICAL CO., LTD., priority 2014, published 2017).

Key:
AurB or AurC = assay: Probe-based (AX9989) kinase profiling in Jurkat lysate: AurB or AurC; type: binding
Method in brief: (§1)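 Read-out: LC/MS intensity of desthiobiotinylated kinase active-site peptides, percent inhibition normalized to no-compound lysate. Jurkat lysate with 20 mM MnCl2 received compound for 15 min at room temperature, then 5 μM AX9989 probe; duplicates.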

JAK1 = molecular target: T1, JAK1 (Homo sapiens, UniProt P23458); assay: Probe-based (AX9989) kinase profiling in Jurkat lysate: JAK1; type: binding; conditions: read-out: Kinase inhibition % at indicated screening concentration: JAK1; for inhibition at 1 µM: screening concentration 1.0 μM; for inhibition at 0.1 µM: screening concentration 0.1 μM
T1 construct: screened for activity against several kinases in Jurkat cells; endogenous in cells; host or cells: Jurkat cell lysate
T1 sequence (P23458 whole entry): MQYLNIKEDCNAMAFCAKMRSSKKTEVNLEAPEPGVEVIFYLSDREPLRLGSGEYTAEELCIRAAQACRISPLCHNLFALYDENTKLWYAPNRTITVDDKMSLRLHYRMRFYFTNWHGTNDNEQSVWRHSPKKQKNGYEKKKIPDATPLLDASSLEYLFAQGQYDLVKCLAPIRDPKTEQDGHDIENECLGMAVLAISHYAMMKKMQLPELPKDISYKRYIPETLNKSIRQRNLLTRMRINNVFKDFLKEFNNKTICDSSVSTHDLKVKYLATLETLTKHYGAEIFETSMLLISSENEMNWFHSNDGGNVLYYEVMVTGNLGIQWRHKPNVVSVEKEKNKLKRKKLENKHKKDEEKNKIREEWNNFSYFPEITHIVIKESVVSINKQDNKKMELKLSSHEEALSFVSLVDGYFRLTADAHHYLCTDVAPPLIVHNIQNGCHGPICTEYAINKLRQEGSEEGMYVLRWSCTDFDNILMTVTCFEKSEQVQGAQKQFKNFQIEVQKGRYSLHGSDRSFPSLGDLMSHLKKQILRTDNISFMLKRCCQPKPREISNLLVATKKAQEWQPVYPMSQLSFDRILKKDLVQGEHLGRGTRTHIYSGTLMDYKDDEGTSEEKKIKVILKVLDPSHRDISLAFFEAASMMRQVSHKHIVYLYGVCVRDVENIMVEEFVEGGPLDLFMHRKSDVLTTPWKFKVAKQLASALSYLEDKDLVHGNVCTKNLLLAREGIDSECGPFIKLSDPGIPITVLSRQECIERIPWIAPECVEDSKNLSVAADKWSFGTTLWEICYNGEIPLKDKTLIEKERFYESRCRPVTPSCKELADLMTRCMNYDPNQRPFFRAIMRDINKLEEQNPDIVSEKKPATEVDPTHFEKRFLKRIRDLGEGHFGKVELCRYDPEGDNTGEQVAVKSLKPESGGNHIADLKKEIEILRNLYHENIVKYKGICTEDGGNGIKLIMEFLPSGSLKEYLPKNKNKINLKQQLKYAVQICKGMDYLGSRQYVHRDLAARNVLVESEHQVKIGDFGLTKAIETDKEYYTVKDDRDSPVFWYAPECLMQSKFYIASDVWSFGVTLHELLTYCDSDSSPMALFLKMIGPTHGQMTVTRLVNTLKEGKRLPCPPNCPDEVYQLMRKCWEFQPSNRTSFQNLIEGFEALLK
Method in brief: as §1

ACK = molecular target: T2, ACK (Homo sapiens, UniProt Q07912); assay: Probe-based (AX9989) kinase profiling in Jurkat lysate: ACK; type: binding; conditions: read-out: Kinase inhibition % at indicated screening concentration: ACK; for inhibition at 1 µM: screening concentration 1.0 μM; for inhibition at 0.1 µM: screening concentration 0.1 μM
T2 construct: screened for activity against several kinases in Jurkat cells; endogenous in cells; host or cells: Jurkat cell lysate
T2 sequence (Q07912 whole entry): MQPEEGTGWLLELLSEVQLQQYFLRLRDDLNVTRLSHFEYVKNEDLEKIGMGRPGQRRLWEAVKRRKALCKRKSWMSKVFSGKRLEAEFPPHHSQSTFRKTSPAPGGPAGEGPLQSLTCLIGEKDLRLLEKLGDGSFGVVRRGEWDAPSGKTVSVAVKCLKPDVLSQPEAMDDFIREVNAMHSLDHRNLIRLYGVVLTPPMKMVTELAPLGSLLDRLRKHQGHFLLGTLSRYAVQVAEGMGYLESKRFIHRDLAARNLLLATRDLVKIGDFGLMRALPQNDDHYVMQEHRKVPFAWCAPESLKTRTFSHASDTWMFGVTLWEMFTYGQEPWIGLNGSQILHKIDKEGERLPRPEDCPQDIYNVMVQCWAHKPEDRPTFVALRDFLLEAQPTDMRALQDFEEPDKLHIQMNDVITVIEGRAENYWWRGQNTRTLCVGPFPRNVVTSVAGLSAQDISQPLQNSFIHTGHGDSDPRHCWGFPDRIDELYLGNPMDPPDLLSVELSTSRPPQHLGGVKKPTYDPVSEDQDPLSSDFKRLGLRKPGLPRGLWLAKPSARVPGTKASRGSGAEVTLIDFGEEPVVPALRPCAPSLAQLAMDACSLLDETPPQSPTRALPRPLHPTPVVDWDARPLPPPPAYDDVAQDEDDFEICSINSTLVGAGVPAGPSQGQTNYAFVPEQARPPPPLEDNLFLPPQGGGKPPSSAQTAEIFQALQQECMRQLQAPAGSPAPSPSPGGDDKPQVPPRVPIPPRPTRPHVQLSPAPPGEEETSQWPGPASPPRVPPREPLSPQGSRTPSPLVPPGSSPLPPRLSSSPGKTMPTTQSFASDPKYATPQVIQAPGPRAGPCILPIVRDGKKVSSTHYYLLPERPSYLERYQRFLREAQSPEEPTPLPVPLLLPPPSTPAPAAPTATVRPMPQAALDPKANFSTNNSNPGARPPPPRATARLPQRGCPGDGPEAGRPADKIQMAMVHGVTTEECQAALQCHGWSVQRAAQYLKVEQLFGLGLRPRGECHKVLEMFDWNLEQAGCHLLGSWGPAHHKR
Method in brief: as §1

ABL or ARG = assay: Probe-based (AX9989) kinase profiling in Jurkat lysate: ABL or ARG; type: binding
Method in brief: as §1

human PBMCs = assay: Human PBMC TNF-α response to endotoxin (ELISA); type: cell-based; conditions: 0.1 μg/ml LPS 16 h, read-out: EC50 for the inhibition of the human PBMC TNF-α response to endotoxin, ave. ± S.D.
Method in brief: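 PBMCs at 2e6 cells/ml in RPMI 1640 with 10% charcoal-dextran-treated FBS were pre-treated 1 h at 37 °C with compound (4-point 1:5 dilution from 10 μM). Stimulation with 0.1 μg/ml E. coli 0111:B4 LPS for 16 h; TNF-α measured by ELISA (A450) in 25-fold diluted supernatant.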

[1] = molecular target: T3, BRD4 bromodomain domain I [BRD4(1)] (Homo sapiens, UniProt O60885); assay: BRD4 bromodomain domain 1 inhibition assay (TR-FRET); type: binding; conditions: screening concentration 10 μM
T3 construct: BRD4 bromodomain domain I [BRD4(1)]; purchased Cayman Chemicals
Method in brief: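 0.5% DMSO, in triplicate, using Cayman BRD4(1) TR-FRET protocol with slight modification. 670/620 nm ratio normalized to 10 μM JQ1, with DMSO control set as 0% inhibition.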

Structure (SMILES) | Kinase inhibition % at indicated screening concentration: AurB or AurC (AurB or AurC; screening concentration 1.0 μM) | inhibition at 1 µM (JAK1) [%] | inhibition at 1 µM (ACK) [%] | Kinase inhibition % at indicated screening concentration: ABL or ARG (ABL or ARG; screening concentration 1.0 μM) | EC50 (human PBMCs) [nM] | inhibition at 10 µM [1] [%] | Kinase inhibition % at indicated screening concentration: AurB or AurC (AurB or AurC; screening concentration 0.1 μM) | inhibition at 0.1 µM (JAK1) [%] | inhibition at 0.1 µM (ACK) [%] | Kinase inhibition % at indicated screening concentration: ABL or ARG (ABL or ARG; screening concentration 0.1 μM)
CCOc1cc(C(=O)N2CCN(CCOCCO)CC2)ccc1Nc1cc2c(cn1)N(C)C(=O)c1ccccc1N2C [Compound 6] | E (E is ≦35%) | ≤ 35 | ≤ 35 | E (E is ≦35%) | 540 | > 85 | – | – | – | –
CCOc1cc(C(=O)N2CCCN(C)CC2)ccc1Nc1cc2c(cn1)N(C)C(=O)c1ccccc1N2C [Compound 8] | E (E is ≦35%) | ≤ 35 | ≤ 35 | E (E is ≦35%) | 650 | 70 to 85 | – | – | – | –
CCOc1cc(C(=O)N2CCN(CC3CC3)CC2)ccc1Nc1cc2c(cn1)N(C)C(=O)c1ccccc1N2C [Compound 10] | – | – | – | – | 1280 | 70 to 85 | E (E is ≦35%) | ≤ 35 | ≤ 35 | E (E is ≦35%)
CCOc1cc(C(=O)N2CCC(N3CCCC3)CC2)ccc1Nc1cc2c(cn1)N(C)C(=O)c1ccccc1N2C [Compound 46, 3-(2-Ethoxy-4-(4-(pyrrolidin-1-yl)piperidine-1-carbonyl)phenylamino)-5,11-dimethyl-5H-benzo[e]pyrido[3,4-b][1,4]diazepin-10(11H)-one] | E (E is ≦35%) | ≤ 35 | ≤ 35 | E (E is ≦35%) | 470 | > 85 | – | – | – | –
Cc1cc(CN2CC[C@@H](N3CCCC3)C2)ccc1Nc1cc2c(cn1)N(C)C(=O)c1ccccc1N2C [Compound 49] | – | – | – | – | 1510 | > 85 | E (E is ≦35%) | ≤ 35 | ≤ 35 | E (E is ≦35%)
CCOc1cc(C(N)=O)ccc1Nc1cc2c(cn1)N(C)C(=O)c1ccccc1N2C [Compound 51] | – | – | – | – | 2040 | < 70 | E (E is ≦35%) | ≤ 35 | ≤ 35 | E (E is ≦35%)
CCOc1cc(C(=O)N2CCC(O)CC2)ccc1Nc1cc2c(cn1)N(C)C(=O)c1ccccc1N2C [Compound 52] | E (E is ≦35%) | ≤ 35 | ≤ 35 | E (E is ≦35%) | 820 | 70 to 85 | – | – | – | –
CN1C(=O)c2occc2N(C)c2cc(N[C@H]3CC[C@H](N)CC3)ncc21 [Compound 53] | E (E is ≦35%) | ≤ 35 | ≤ 35 | E (E is ≦35%) | 4130 | 70 to 85 | – | – | – | –
CCOc1cc(C(=O)NCCCN(CC)CC)ccc1Nc1cc2c(cn1)N(C)C(=O)c1ccccc1N2C [Compound 54] | E (E is ≦35%) | ≤ 35 | ≤ 35 | E (E is ≦35%) | 600 | > 85 | – | – | – | –
CCOc1cc(C(=O)NCCN(C(C)C)C(C)C)ccc1Nc1cc2c(cn1)N(C)C(=O)c1ccccc1N2C [Compound 55] | – | – | – | – | 1160 ± 450 | 70 to 85 | E (E is ≦35%) | ≤ 35 | ≤ 35 | E (E is ≦35%)
CCOc1cc(C(=O)N2CC[C@@H](N3CCCCC3)C2)ccc1Nc1cc2c(cn1)N(C)C(=O)c1occc1N2C [Compound 56] | – | – | – | – | 600 ± 190 | > 85 | E (E is ≦35%) | ≤ 35 | ≤ 35 | E (E is ≦35%)
CCOc1cc(C(=O)NCC2CC2)ccc1Nc1cc2c(cn1)N(C)C(=O)c1ccccc1N2C [Compound 57] | E (E is ≦35%) | ≤ 35 | ≤ 35 | E (E is ≦35%) | 1080 | < 70 | – | – | – | –
CCOc1cc(C(=O)N2CCC(N3CCN(C)CC3)CC2)ccc1Nc1cc2c(cn1)N(C)C(=O)c1ccccc1N2C [Compound 61] | E (E is ≦35%) | ≤ 35 | ≤ 35 | E (E is ≦35%) | 890 ± 290 | > 85 | – | – | – | –
CCOc1cc(C(=O)N2CCNCC2)ccc1Nc1cc2c(cn1)N(C)C(=O)c1ccccc1N2C [Compound 62] | E (E is ≦35%) | ≤ 35 | ≤ 35 | E (E is ≦35%) | 720 | 70 to 85 | – | – | – | –
CCOc1cc(C(=O)N2CCC(OC)CC2)ccc1Nc1cc2c(cn1)N(C)C(=O)c1ccccc1N2C [Compound 63] | E (E is ≦35%) | ≤ 35 | ≤ 35 | E (E is ≦35%) | 870 | 70 to 85 | – | – | – | –
CN1C(=O)c2ccccc2N(C)c2cc(NC3CCC(C(=O)NC4CCOCC4)CC3)ncc21 (stereo not drawn) [Compound 64] | E (E is ≦35%) | ≤ 35 | ≤ 35 | E (E is ≦35%) | 3170 | < 70 | – | – | – | –
CCOc1cc(C(=O)N2CCC(N3CCN(C)CC3)CC2)ccc1Nc1cc2c(cn1)N(C)C(=O)c1occc1N2C [Compound 65] | – | – | – | – | 460 | > 85 | E (E is ≦35%) | ≤ 35 | ≤ 35 | E (E is ≦35%)
CCOc1cc(C(=O)NCCO)ccc1Nc1cc2c(cn1)N(C)C(=O)c1ccccc1N2C [Compound 66] | E (E is ≦35%) | ≤ 35 | ≤ 35 | E (E is ≦35%) | 1330 | < 70 | – | – | – | –
CCOc1cc(C(=O)N2CC[C@@H](N(CC)CC)C2)ccc1Nc1cc2c(cn1)N(C)C(=O)c1occc1N2C [Compound 67] | – | – | – | – | 920 ± 180 | > 85 | E (E is ≦35%) | ≤ 35 | ≤ 35 | E (E is ≦35%)
